# Like-named read-outs stand apart in the source and are kept apart here.
# Assays:
# Format in all cases: cell-based
# 168 GPCRs [1] = biological target: T1, 168 GPCRs (Homo sapiens, UniProt P21453)
# T1 construct: host or cells: PathHunter cell lines
# 168 GPCRs [2] = biological target: T2, 168 GPCRs (Homo sapiens, UniProt P25929); details: NPY1R
# T2 construct: host or cells: PathHunter cell lines
# T2 sequence (P25929 1-384): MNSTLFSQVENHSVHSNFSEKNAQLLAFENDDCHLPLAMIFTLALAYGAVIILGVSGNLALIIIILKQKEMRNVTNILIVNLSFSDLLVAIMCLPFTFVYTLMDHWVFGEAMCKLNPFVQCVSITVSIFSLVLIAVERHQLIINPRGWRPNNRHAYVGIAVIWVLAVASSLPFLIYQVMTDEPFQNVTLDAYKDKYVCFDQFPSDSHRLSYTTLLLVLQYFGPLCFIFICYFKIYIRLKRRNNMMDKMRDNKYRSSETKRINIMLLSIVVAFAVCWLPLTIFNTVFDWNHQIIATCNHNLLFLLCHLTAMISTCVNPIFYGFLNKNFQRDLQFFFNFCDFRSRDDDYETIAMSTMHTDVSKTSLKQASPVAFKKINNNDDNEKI
# 168 GPCRs [3] = biological target: T3, 168 GPCRs (Homo sapiens, UniProt P32249)
# T3 construct: host or cells: PathHunter cell lines
# 168 GPCRs [4] = biological target: T4, 168 GPCRs (Homo sapiens, UniProt P46663)
# T4 construct: host or cells: PathHunter cell lines
# T4 sequence (P46663 1-353): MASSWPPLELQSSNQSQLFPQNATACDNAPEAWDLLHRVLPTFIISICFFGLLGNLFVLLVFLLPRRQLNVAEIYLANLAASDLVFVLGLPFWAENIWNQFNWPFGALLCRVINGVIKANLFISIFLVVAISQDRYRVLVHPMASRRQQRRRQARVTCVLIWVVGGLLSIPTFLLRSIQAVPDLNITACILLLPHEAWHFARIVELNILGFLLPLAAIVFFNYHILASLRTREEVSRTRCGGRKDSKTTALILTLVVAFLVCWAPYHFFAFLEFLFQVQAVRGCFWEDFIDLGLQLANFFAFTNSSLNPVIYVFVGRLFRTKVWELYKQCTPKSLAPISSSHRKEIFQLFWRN
# 168 GPCRs [5] = biological target: T5, 168 GPCRs (Homo sapiens, UniProt P47901); details: AVPR1B
# T5 construct: host or cells: PathHunter cell lines
# T5 sequence (P47901 1-424): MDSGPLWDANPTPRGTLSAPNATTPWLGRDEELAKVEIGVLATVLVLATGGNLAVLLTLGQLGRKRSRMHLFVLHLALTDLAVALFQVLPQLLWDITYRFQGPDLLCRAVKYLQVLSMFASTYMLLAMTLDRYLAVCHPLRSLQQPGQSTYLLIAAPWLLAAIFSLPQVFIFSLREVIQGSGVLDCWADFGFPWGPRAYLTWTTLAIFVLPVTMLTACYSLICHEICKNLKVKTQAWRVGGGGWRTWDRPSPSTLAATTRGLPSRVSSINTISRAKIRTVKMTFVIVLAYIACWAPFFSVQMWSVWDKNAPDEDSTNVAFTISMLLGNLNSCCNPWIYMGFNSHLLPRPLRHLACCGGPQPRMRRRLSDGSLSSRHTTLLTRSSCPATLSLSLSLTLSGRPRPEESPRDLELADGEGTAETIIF
# 168 GPCRs [6] = biological target: T6, 168 GPCRs (Homo sapiens, UniProt P49190); details: PTHR2
# T6 construct: host or cells: PathHunter cell lines
# 168 GPCRs [7] = biological target: T7, 168 GPCRs (Homo sapiens, UniProt Q99788)
# T7 construct: host or cells: PathHunter cell lines
# T7 sequence (Q99788 1-373): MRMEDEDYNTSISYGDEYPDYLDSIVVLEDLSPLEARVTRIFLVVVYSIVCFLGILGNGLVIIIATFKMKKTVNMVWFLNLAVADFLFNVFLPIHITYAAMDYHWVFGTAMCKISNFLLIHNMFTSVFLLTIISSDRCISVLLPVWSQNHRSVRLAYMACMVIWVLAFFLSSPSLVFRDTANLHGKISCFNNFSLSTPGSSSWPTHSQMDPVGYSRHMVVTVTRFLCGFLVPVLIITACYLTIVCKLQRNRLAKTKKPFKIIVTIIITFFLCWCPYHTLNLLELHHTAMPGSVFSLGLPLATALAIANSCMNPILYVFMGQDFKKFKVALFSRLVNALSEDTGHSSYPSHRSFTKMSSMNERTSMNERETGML
# T3 sequence (P32249 whole entry): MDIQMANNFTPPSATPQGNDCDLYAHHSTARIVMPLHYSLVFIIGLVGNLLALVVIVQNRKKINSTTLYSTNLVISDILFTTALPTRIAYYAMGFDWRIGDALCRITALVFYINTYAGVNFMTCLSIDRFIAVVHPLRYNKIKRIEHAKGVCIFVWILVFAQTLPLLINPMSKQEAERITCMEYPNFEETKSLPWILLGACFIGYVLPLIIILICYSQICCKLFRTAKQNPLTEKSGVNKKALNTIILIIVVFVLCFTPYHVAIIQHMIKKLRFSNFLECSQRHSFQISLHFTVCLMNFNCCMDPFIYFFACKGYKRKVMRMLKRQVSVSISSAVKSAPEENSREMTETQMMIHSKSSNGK
# T6 sequence (P49190 25-550): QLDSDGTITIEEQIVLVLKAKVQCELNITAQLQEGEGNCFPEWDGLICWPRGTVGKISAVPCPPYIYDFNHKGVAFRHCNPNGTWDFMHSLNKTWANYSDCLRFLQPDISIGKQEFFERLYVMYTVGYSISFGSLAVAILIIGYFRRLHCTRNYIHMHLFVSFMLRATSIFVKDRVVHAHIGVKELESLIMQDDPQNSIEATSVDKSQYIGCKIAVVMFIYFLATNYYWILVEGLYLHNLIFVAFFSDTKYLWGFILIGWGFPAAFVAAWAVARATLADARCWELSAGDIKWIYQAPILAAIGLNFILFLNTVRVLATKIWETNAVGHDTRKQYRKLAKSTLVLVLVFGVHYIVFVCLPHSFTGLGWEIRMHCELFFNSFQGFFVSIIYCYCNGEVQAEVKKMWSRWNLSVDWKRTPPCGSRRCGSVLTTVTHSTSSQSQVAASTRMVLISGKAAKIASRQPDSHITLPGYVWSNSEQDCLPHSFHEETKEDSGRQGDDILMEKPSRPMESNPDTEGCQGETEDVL
# T1 sequence (P21453 whole entry): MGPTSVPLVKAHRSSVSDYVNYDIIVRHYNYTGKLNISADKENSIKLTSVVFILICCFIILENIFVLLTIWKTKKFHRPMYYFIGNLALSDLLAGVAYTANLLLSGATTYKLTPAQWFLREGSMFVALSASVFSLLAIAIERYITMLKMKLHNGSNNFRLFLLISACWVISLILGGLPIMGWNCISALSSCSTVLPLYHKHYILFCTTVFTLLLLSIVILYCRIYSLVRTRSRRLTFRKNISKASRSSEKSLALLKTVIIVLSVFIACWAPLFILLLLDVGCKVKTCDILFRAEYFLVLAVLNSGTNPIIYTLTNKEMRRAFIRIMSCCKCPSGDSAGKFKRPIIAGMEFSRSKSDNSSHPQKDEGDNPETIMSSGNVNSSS
compound,measurement,setting,value
"CNC(C)Cc1ccc2c(c1)OCO2 (centres unmarked) [MDMA, 3,4-Methylenedioxy methamphetamine, reference compound]",% Agonist Activity,"168 GPCRs [1]; EDG1, 1 uM",0%
same,% Antagonist Activity,"168 GPCRs [1]; EDG1, 1 uM",3.5%
same,% Agonist Activity,"168 GPCRs [1]; EDG1, 10 uM",-0.6%
same,% Antagonist Activity,"168 GPCRs [1]; EDG1, 10 uM",-12.4%
same,% Agonist Activity,168 GPCRs [2]; Conc 1 uM,1.3%
same,% Antagonist Activity,168 GPCRs [2]; Conc 1 uM,-3.9%
same,% Agonist Activity,168 GPCRs [2]; Conc 10 uM,0.6%
same,% Antagonist Activity,168 GPCRs [2]; Conc 10 uM,2.2%
same,% Agonist Activity,"168 GPCRs [3]; EBI2, 1 uM",0.6%
same,% Antagonist Activity,"168 GPCRs [3]; EBI2, 1 uM",4.4%
same,% Agonist Activity,"168 GPCRs [3]; EBI2, 10 uM",-0.4%
same,% Antagonist Activity,"168 GPCRs [3]; EBI2, 10 uM",7.9%
same,% Agonist Activity,"168 GPCRs [4]; BDKRB1, 1 uM",-1.2%
same,% Antagonist Activity,"168 GPCRs [4]; BDKRB1, 1 uM",-17.1%
same,% Agonist Activity,"168 GPCRs [4]; BDKRB1, 10 uM",-0.2%
same,% Antagonist Activity,"168 GPCRs [4]; BDKRB1, 10 uM",-12.7%
same,% Agonist Activity,168 GPCRs [5]; 1 uM,-1%
same,% Antagonist Activity,168 GPCRs [5]; 1 uM,8.1%
same,% Agonist Activity,168 GPCRs [5]; 10 uM,-1.8%
same,% Antagonist Activity,168 GPCRs [5]; 10 uM,0.8%
same,% Agonist Activity,168 GPCRs [6]; Conc 1 uM,0.2%
same,% Antagonist Activity,168 GPCRs [6]; Conc 1 uM,2.9%
same,% Agonist Activity,168 GPCRs [6]; Conc 10 uM,0.5%
same,% Antagonist Activity,168 GPCRs [6]; Conc 10 uM,7%
same,% Agonist Activity,"168 GPCRs [7]; CMKLR1, 1 uM",-0.3%
same,% Antagonist Activity,"168 GPCRs [7]; CMKLR1, 1 uM",0.4%
same,% Agonist Activity,"168 GPCRs [7]; CMKLR1, 10 uM",-0.4%
same,% Antagonist Activity,"168 GPCRs [7]; CMKLR1, 10 uM",1.1%
CNC(C)C(=O)c1ccc2c(c1)OCO2 (centres unmarked) [methylone],% Agonist Activity,"168 GPCRs [1]; EDG1, 1 uM",0.1%
same,% Antagonist Activity,"168 GPCRs [1]; EDG1, 1 uM",12.4%
same,% Agonist Activity,"168 GPCRs [1]; EDG1, 10 uM",0.4%
same,% Antagonist Activity,"168 GPCRs [1]; EDG1, 10 uM",10.5%
same,% Agonist Activity,168 GPCRs [2]; Conc 1 uM,-2.2%
same,% Antagonist Activity,168 GPCRs [2]; Conc 1 uM,0.2%
same,% Agonist Activity,168 GPCRs [2]; Conc 10 uM,-4.9%
same,% Antagonist Activity,168 GPCRs [2]; Conc 10 uM,5.4%
same,% Agonist Activity,"168 GPCRs [3]; EBI2, 1 uM",0.5%
same,% Antagonist Activity,"168 GPCRs [3]; EBI2, 1 uM",0.6%
same,% Agonist Activity,"168 GPCRs [3]; EBI2, 10 uM",-0.1%
same,% Antagonist Activity,"168 GPCRs [3]; EBI2, 10 uM",-2.6%
same,% Agonist Activity,"168 GPCRs [4]; BDKRB1, 1 uM",-1.7%
same,% Antagonist Activity,"168 GPCRs [4]; BDKRB1, 1 uM",2.8%
same,% Agonist Activity,"168 GPCRs [4]; BDKRB1, 10 uM",-2.5%
same,% Antagonist Activity,"168 GPCRs [4]; BDKRB1, 10 uM",12.1%
same,% Agonist Activity,168 GPCRs [5]; 1 uM,-1.2%
same,% Antagonist Activity,168 GPCRs [5]; 1 uM,9.8%
same,% Agonist Activity,168 GPCRs [5]; 10 uM,-1.1%
same,% Antagonist Activity,168 GPCRs [5]; 10 uM,3.5%
same,% Agonist Activity,168 GPCRs [6]; Conc 1 uM,-0.6%
same,% Antagonist Activity,168 GPCRs [6]; Conc 1 uM,-1%
same,% Agonist Activity,168 GPCRs [6]; Conc 10 uM,-0.5%
same,% Antagonist Activity,168 GPCRs [6]; Conc 10 uM,-0.2%
same,% Agonist Activity,"168 GPCRs [7]; CMKLR1, 1 uM",-0.2%
same,% Antagonist Activity,"168 GPCRs [7]; CMKLR1, 1 uM",-0.2%
same,% Agonist Activity,"168 GPCRs [7]; CMKLR1, 10 uM",-0.3%
same,% Antagonist Activity,"168 GPCRs [7]; CMKLR1, 10 uM",-5.6%

# Source: article PMC10882719 (Frontiers in Neuroscience, 2024)
